Measurements taken from patent US12643892B2, “Pyridazinone compounds for the treatment of neuromuscular diseases” (Edgewise Therapeutics, Inc., priority 2020, dated 2026).

Molecular target: Skeletal Myofibril ATPase (Rabbit Psoas myofibrils)
Assay: Skeletal Myofibril ATPase Assay
Type: biochemical
Details: PK/LDH-coupled NADH absorbance at 340 nm
Procedure: Overview: Myosin ATPase activity was assessed by using a coupled reaction system, in which ADP generated by the myosin ATPase function was coupled to the disappearance of NADH through the pyruvate kinase/lactate dehydrogenase (PK-LDH) system. Myosin ATPase activity produces ADP, which was used as a substrate for PK to produce pyruvate and regenerate ATP. The pyruvate was then used as a substrate by LDH to oxidize NADH to NAD+. The rate of the reaction was monitored through the time-dependent disappearance of NADH using absorbance at 340 nm. Inhibition of ATPase activity by the assayed compounds was indicated by a reduced rate of NADH loss, relative to vehicle-treated controls, over the experimental time window. To assess the selectivity of the assayed compounds for skeletal myofibrils, the compounds were counter-screened in cardiac myofibrils.
Materials: The following stock solutions and reagents were used in the Skeletal Myofibril ATPase Assay:
Stock Solutions of pCa buffer. Combine PIPES, CaCl2, and EGTA solutions with 70 mL of water. Adjust pH to 7.0 and bring final volume to 100 mL.
Buffer A & Buffer B. Buffers were stored on ice until use.
Skeletal Myofibril ATPase Assay Procedure: BSA, ATP, NADH, PEP, and DTT solutions were thawed at room temperature, then transferred to ice. Pellet-frozen myofibrils (approximately twice the required volume) were transferred into a sufficiently large tube and capped. Myofibrils were thawed by rolling in a water bath for approximately 15 min at room temperature and cooled on ice. Buffers A and B were prepared by adjusting volumes as necessary for required number of wells and stored on ice. 0.5 μL of the compounds to be assayed were added into wells of a 384-well plate. Buffers A and B were mixed by inversion immediately prior to use, then 25 μL of each was dispensed using a Multidrop dispenser (Buffer A first, then Buffer B). The absorbance within the wells was measured at 340 nm, using a kinetic protocol in which the wells are read every 1.5-2 min for 1 h. The reaction rate was qualitatively assessed by subtracting the minimum absorbance value from the maximum value for each well, using either the SoftMax Pro plate reader software or a spreadsheet program such as Excel. Using GraphPad Prism 8.0, the data was normalized, with 100% activity defined as the absorbance change in the 1% DMSO vehicle wells and 0% assigned to no change in absorbance over the course of the experiment. The normalized data were fit to a variable-slope four-parameter logistic model, constraining the bottom to be 0 or greater. Compounds of Table 1 to 3 were tested and results of the assay appear in Table 4 herein. A=IC50 is less than or equal to 10 μM; B=IC50 is greater than 10 μM and less than 100 μM; C=IC50 is greater than 100 μM.

IC50 [µM] | Structure (SMILES)
> 100 | Cn1cnc(-c2ccc(=O)n(CC(=O)NCc3ccccc3Cl)n2)c1 [Compound 55, N-(2-chlorobenzyl)-2-(3-(1-methyl-1H-imidazol-4-yl)-6-oxopyridazin-1(6H)-yl)acetamide]
≤ 10 | Cc1cccc(-c2noc(-c3ccc(=O)n(Cc4ccc(Cl)nc4)c3)n2)c1 [Compound 87, 1-((6-chloropyridin-3-yl)methyl)-5-(3-(m-tolyl)-1,2,4-oxadiazol-5-yl)pyridin-2(1H)-one]
10 to 100 | Cc1noc(-c2ccc(=O)n(Cc3ccccc3F)n2)n1 [Compound 70, 2-(2-fluorobenzyl)-6-(3-methyl-1,2,4-oxadiazol-5-yl)pyridazin-3(2H)-one]
≤ 10 | Cc1cncc(Cn2cc(-c3nc(-c4cccc(C)c4)no3)ccc2=O)c1 [Compound 95, 1-((5-methylpyridin-3-yl)methyl)-5-(3-(m-tolyl)-1,2,4-oxadiazol-5-yl)pyridin-2(1H)-one]
≤ 10 | Cc1cccc(-c2noc(-c3ccc(=O)n(Cc4nnc(C)o4)c3)n2)c1 [Compound 100, 1-((5-methyl-1,3,4-oxadiazol-2-yl)methyl)-5-(3-(m-tolyl)-1,2,4-oxadiazol-5-yl)pyridin-2(1H)-one]
> 100 | O=C(Cn1nc(-c2ccco2)ccc1=O)NCc1ccccc1F [Compound 53, N-(2-fluorobenzyl)-2-(3-(furan-2-yl)-6-oxopyridazin-1(6H)-yl)acetamide]
≤ 10 | CCNC(=O)Cn1nc(-c2nnc(C34CC(C3)C4)s2)ccc1=O [Compound 32, 2-(3-(5-(bicyclo[1.1.1]pentan-1-yl)-1,3,4-thiadiazol-2-yl)-6-oxopyridazin-1(6H)-yl)-N-ethylacetamide]
≤ 10 | Cc1cccc(-c2noc(-c3ccc(=O)n(Cc4ccc(C)nc4)c3)n2)c1 [Compound 96, 1-((6-methylpyridin-3-yl)methyl)-5-(3-(m-tolyl)-1,2,4-oxadiazol-5-yl)pyridin-2(1H)-one]
> 120 | CC(c1cncc(F)c1)n1cc(-c2nc(-c3cccc(Cl)c3)no2)ccc1=O (stereo not shown) [Compound 117, 5-(3-(3-chlorophenyl)-1,2,4-oxadiazol-5-yl)-1-(1-(5-fluoropyridin-3-yl)ethyl)pyridin-2(1H)-one]
≤ 10 | O=c1ccc(-c2nc(-c3cncc(Cl)c3)no2)cn1Cc1cccnc1 [Compound 99, 5-(3-(5-chloropyridin-3-yl)-1,2,4-oxadiazol-5-yl)-1-(pyridin-3-ylmethyl)pyridin-2(1H)-one]
10 to 100 | COCCn1nc(-c2nc(-c3ccc(F)c(C)c3)no2)ccc1=O [Compound 74, 6-(3-(4-fluoro-3-methylphenyl)-l,2,4-oxadiazol-5-yl)-2-(2-methoxyethyl)pyridazin-3(2H)-one]
> 120 | Cc1cccc(-c2noc(-c3ccc(=O)n(Cc4ccc(C(F)(F)F)nc4)c3)n2)c1 [Compound 114, 5-(3-(m-tolyl)-1,2,4-oxadiazol-5-yl)-l-((6-(trifluoromethyl)pyridin-3-yl)methyl)pyridin-2(1H)-one]
10 to 100 | O=c1ccc(-c2nc(-c3cccnc3)no2)nn1Cc1ccccc1F [Compound 68, 2-(2-fluorobenzyl)-6-(3-(pyridin-3-yl)-1,2,4-oxadiazol-5-yl)pyridazin-3(2H)-one]
> 120 | O=c1ccc(-c2nc(-c3cnccn3)no2)cn1Cc1ccccc1F [Compound 116, 1-(2-fluorobenzyl)-5-(3-(pyrazin-2-yl)-1,2,4-oxadiazol-5-yl)pyridin-2(1H)-one]
10 to 100 | O=C(Cn1nc(-c2cccs2)ccc1=O)Nc1ccccc1F [Compound 41, N-(2-fluorophenyl)-2-(6-oxo-3-(thiophen-2-yl)pyridazin-1(6H)-yl)acetamide]
≤ 10 | COc1cccc(-c2noc(-c3ccc(=O)n(Cc4cccnc4)c3)n2)c1 [Compound 101, 5-(3-(3-methoxyphenyl)-1,2,4-oxadiazol-5-yl)-1-(pyridin-3-ylmethyl)pyridin-2(1H)-one]
